*1 amine or outer side, *2 acyl side, *3 side chain or, on linkers, in order; H or OH if unused. Where a SMILES comes first, the peptide text is derived from it. Bridges are numbered along the chain shown (N, C = ends). [ ]: non-standard residue; d: D form. The star is where a group is joined. X9 = CSCC[C@H](NC(=O)c1ccc(CNC(=O)CN2CCN(CC(=O)O)CCN(CC(=O)O)CCN(CC(=O)O)CC2)cc1)C(=O)N[C@H](C(=O)N[C@@H](CCCCN*)C(=O)O)C(C)C; Ala(piperidin-4-yl) = O=C([C@H](CC1CCN([*:3])CC1)N[*:1])[*:2]; DOTA = O=C(O)CN1CCN(CC(=O)O)CCN(CC(=O)*)CCN(CC(=O)O)CC1; Trp(7-aza) = N[C@@H](Cc1c[nH]c2ncccc12)C(=O)O; Trp(1-Me) = Cn1cc(C[C@H](N)C(=O)O)c2ccccc21; Bip = N[C@@H](Cc1ccc(-c2ccccc2)cc1)C(=O)O; Phe(4-F) = N[C@@H](Cc1ccc(F)cc1)C(=O)O; 2Nal = N[C@@H](Cc1ccc2ccccc2c1)C(=O)O; tBuAla = CC(C)(C)C[C@H](N)C(=O)O; AllylGly = C=CC[C@H](N)C(=O)O; Chg = N[C@H](C(=O)O)C1CCCCC1; NMeNle = CCCC[C@H](NC)C(=O)O; CH2 = C([*:1])[*:2]
target: T1, DLL3 (Homo sapiens, UniProt Q9NYJ7); assay: SPR KD, biotinylated human DLL3 on streptavidin chip (Table 8); parameters: biotin (biotinylated); settings: SPR KD, biotinylated human DLL3 on streptavidin sensor chip, 25° C., 1:1 binding model
T1 sequence (Q9NYJ7 27-618): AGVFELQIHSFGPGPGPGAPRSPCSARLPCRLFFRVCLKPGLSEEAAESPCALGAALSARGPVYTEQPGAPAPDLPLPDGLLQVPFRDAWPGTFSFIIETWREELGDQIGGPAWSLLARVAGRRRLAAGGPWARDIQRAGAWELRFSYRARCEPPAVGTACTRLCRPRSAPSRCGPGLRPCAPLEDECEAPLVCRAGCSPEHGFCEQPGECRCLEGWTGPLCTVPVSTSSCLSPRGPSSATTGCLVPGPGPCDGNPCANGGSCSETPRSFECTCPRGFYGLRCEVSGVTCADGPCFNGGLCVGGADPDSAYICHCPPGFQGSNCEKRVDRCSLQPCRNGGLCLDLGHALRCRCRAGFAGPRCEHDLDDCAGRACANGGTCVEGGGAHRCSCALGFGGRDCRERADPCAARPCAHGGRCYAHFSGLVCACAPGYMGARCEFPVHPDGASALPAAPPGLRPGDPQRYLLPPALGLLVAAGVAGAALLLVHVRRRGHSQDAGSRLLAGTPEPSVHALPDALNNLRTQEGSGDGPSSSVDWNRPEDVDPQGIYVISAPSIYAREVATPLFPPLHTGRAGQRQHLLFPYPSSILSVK
Excerpt: Biotinylated target ligand human DLL3 was immobilized on a streptavidin sensor chip. A reference surface was set up for nonspecific binding and refractive index changes. […] Sensorgram curves were fitted with 1:1 binding model, and affinity and kinetic parameters were obtained using Biacore Insight evaluation 4.0. software.

SMILES	Kd
CC[C@H](C)[C@H](NC(=O)[C@@H](NC(=O)[C@H](Cc1c[nH]c2ccccc12)NC(C)=O)[C@@H](C)O)C(=O)N[C@H]1CSSC[C@@H](C(=O)N[C@@H](Cc2c[nH]c3ccccc23)C(=O)N2CCC[C@H]2C(=O)N[C@H](CCCCNC(=O)CN2CCN(CC(=O)O)CCN(CC(=O)O)CCN(CC(=O)O)CC2)C(N)=O)NC(=O)[C@H](CC(=O)O)NC(=O)[C@H](CCCCNC(=O)CN2CCN(CC(=O)O)CCN(CC(=O)O)CCN(CC(=O)O)CC2)NC(=O)[C@H](Cc2ccc3ccccc3c2)NC(=O)[C@H](CC(N)=O)NC(=O)[C@H](CC(N)=O)NC1=O [compound 253, Ac-W-T-I-C(3)-N-N-(2Nal)-Lys(DOTA)-D-C(3)-W-P-[D-Lys(DOTA)]-NH2] (Ac-WTICNN[2Nal]K(DOTA)DCWP[dK](DOTA)-NH2; disulfide 4-10)	< 1 nM

same assay, conditions: biotinylated human DLL3 on streptavidin sensor chip, 25° C., 1:1 binding model; read-out: SPR KD

Kd	SMILES
10 to 100 nM	CC[C@H](C)[C@H](NC(=O)[C@@H](NC(=O)[C@H](Cc1c[nH]c2ccccc12)NC(C)=O)[C@@H](C)O)C(=O)N[C@H]1CSSC[C@@H](C(=O)N[C@@H](Cc2c[nH]c3ccccc23)C(=O)N2CCC[C@H]2C(N)=O)NC(=O)[C@H](CC(=O)O)NC(=O)[C@H](Cc2cnc[nH]2)NC(=O)[C@H](Cc2ccc(-c3ccccc3)cc2)NC(=O)[C@H](CC(N)=O)NC(=O)[C@H](CC(N)=O)NC1=O [compound 53, Ac-W-T-I-C(3)-N-N-(BIP)-H-D-C(3)-W-P-CONH2] (Ac-WTICNN[Bip]HDCWP-NH2; disulfide 4-10)
10 to 100 nM	CC[C@H](C)[C@H](NC(=O)[C@@H](NC(=O)[C@H](Cc1ccc2ccccc2c1)NC(C)=O)[C@@H](C)O)C(=O)N[C@H]1CSSC[C@@H](C(=O)N[C@@H](Cc2c[nH]c3ccccc23)C(=O)N2CCC[C@H]2C(N)=O)NC(=O)[C@H](CC(=O)O)NC(=O)[C@H](Cc2cnc[nH]2)NC(=O)[C@H](Cc2c[nH]c3ccccc23)NC(=O)[C@H](CC(N)=O)NC(=O)[C@H](CC(N)=O)NC1=O [compound 26, Ac-(2Nal)-T-I-C(3)-N-N-W-H-D-C(3)-W-P-CONH2] (Ac-[2Nal]TICNNWHDCWP-NH2; disulfide 4-10)
100 to 300 nM	CC[C@H](C)[C@H](NC(=O)[C@@H](NC(=O)[C@H](Cc1ccc(F)cc1)NC(C)=O)[C@@H](C)O)C(=O)N[C@H]1CSSC[C@@H](C(=O)N[C@@H](Cc2c[nH]c3ccccc23)C(=O)N2CCC[C@H]2C(N)=O)NC(=O)[C@H](CC(=O)O)NC(=O)[C@H](Cc2cnc[nH]2)NC(=O)[C@H](Cc2c[nH]c3ccccc23)NC(=O)[C@H](CC(N)=O)NC(=O)[C@H](CC(N)=O)NC1=O [compound 214, Ac-(4Fluoro-F)-T-I-C(3)-N-N-W-H-D-C(3)-W-P-CONH2] (Ac-[Phe(4-F)]TICNNWHDCWP-NH2; disulfide 4-10)
100 to 300 nM	CC[C@H](C)[C@H](NC(=O)[C@@H](NC(=O)[C@H](Cc1c[nH]c2ccccc12)NC(C)=O)[C@@H](C)O)C(=O)N[C@H]1CC=CC[C@@H](C(=O)N[C@@H](Cc2c[nH]c3ccccc23)C(=O)N2CCC[C@H]2C(N)=O)NC(=O)[C@H](CC(=O)O)NC(=O)[C@H](Cc2cnc[nH]2)NC(=O)[C@H](Cc2c[nH]c3ccccc23)NC(=O)[C@H](CC(N)=O)NC(=O)[C@H](CC(N)=O)NC1=O [compound 331] (Ac-WTI[AllylGly]NNWHD[AllylGly]WP-NH2; staple 4-10)
< 1 nM	CCCC[C@@H](C(=O)N[C@H]1CSCSC[C@@H](C(=O)N[C@@H](Cc2c[nH]c3ccccc23)C(=O)N2CCC[C@H]2C(N)=O)NC(=O)[C@H](CC(=O)O)NC(=O)[C@H](CCCCNC(=O)CN2CCN(CC(=O)O)CCN(CC(=O)O)CCN(CC(=O)O)CC2)NC(=O)[C@H](Cc2ccc3ccccc3c2)NC(=O)[C@H](CC(N)=O)NC(=O)[C@H](CC2CCNCC2)NC1=O)N(C)C(=O)[C@@H](NC(=O)[C@H](Cc1c[nH]c2ccccc12)NC(C)=O)[C@@H](C)O [compound 400, Ac-W-T-(NMe-Nle)-C(1)-[3-(4-piperidinyl)-Ala]-N-(2Nal)-Lys(DOTA)-D-C(1)-W-P-CONH2] (Ac-WT[NMeNle]C[Ala(piperidin-4-yl)]N[2Nal]K(DOTA)DCWP-NH2; linker 4-10 via CH2)
10 to 100 nM	CC[C@H](C)[C@H](NC(=O)[C@@H](NC(=O)[C@H](Cc1c[nH]c2ncccc12)NC(C)=O)[C@@H](C)O)C(=O)N[C@H]1CSSC[C@@H](C(=O)N[C@@H](Cc2c[nH]c3ccccc23)C(=O)N2CCC[C@H]2C(N)=O)NC(=O)[C@H](CC(=O)O)NC(=O)[C@H](Cc2cnc[nH]2)NC(=O)[C@H](Cc2c[nH]c3ccccc23)NC(=O)[C@H](CC(N)=O)NC(=O)[C@H](CC(N)=O)NC1=O [compound 24, Ac-(7Aza-W)-T-I-C(3)-N-N-W-H-D-C(3)-W-P-CONH2] (Ac-[Trp(7-aza)]TICNNWHDCWP-NH2; disulfide 4-10)
100 to 300 nM	CC(=O)N[C@H](Cc1c[nH]c2ccccc12)C(=O)N[C@@H](C(=O)N[C@@H](CC(C)(C)C)C(=O)N[C@@H]1CSCSC[C@@H](C(=O)N[C@@H](Cc2c[nH]c3ccccc23)C(=O)N2CCC[C@H]2C(N)=O)NC(=O)[C@H](CC(=O)O)NC(=O)[C@H](CCCCNC(=O)CN2CCN(CC(=O)O)CCN(CC(=O)O)CCN(CC(=O)O)CC2)NC(=O)[C@H](Cc2ccc3ccccc3c2)NC(=O)[C@H](CC(N)=O)NC(=O)[C@H](CC(N)=O)NC1=O)[C@H](C)O [compound 423, Ac-W-T-(t-Bu-Ala)-[D-Cys(1)]-N-N-(2Nal)-Lys(DOTA)-D-C(1)-W-P-CONH2] (Ac-[dW][dT][tBuAla][dC]NN[2Nal]K(DOTA)DCWP-NH2; linker 4-10 via CH2)
< 1 nM	CSCC[C@H](NC(=O)c1ccc(CNC(=O)CN2CCN(CC(=O)O)CCN(CC(=O)O)CCN(CC(=O)O)CC2)cc1)C(=O)N[C@H](C(=O)N[C@@H](CCCCNC(=O)CC[C@@H]1NC(=O)[C@H](Cc2ccc3ccccc3c2)NC(=O)[C@H](CC(N)=O)NC(=O)[C@H](CC2CCNCC2)NC(=O)[C@@H](NC(=O)[C@@H](NC(=O)[C@@H](NC(=O)[C@H](Cc2c[nH]c3ccccc23)NC(C)=O)[C@@H](C)O)C2CCCCC2)CSCSC[C@@H](C(=O)N[C@@H](Cc2c[nH]c3ccccc23)C(=O)N2CCC[C@H]2C(N)=O)NC(=O)[C@H](CC(=O)O)NC1=O)C(=O)O)C(C)C [compound 425] (Ac-WT[Chg]C[Ala(piperidin-4-yl)]N[2Nal]E(X9)DCWP-NH2; linker 4-10 via CH2)
< 1 nM	CC(=O)N[C@@H](Cc1c[nH]c2ccccc12)C(=O)N[C@H](C(=O)N[C@@H](CC(C)(C)C)C(=O)N[C@H]1CSSC[C@@H](C(=O)N[C@@H](Cc2c[nH]c3ccccc23)C(=O)N2CCC[C@H]2C(N)=O)NC(=O)[C@H](CC(=O)O)NC(=O)[C@H](CCCCNC(=O)CN2CCN(CC(=O)O)CCN(CC(=O)O)CCN(CC(=O)O)CC2)NC(=O)[C@H](Cc2ccc3ccccc3c2)NC(=O)[C@H](CC(N)=O)NC(=O)C(CN2CCOCC2)NC1=O)[C@@H](C)O (single isomer, unassigned) [compound 305, Ac-W-T-(t-Bu-Ala)-C(3)-[3-(1-morpholinyl)-Ala]-N-(2Nal)-Lys(DOTA)-D-C(3)-W-P-CONH2]
10 to 100 nM	CC[C@H](C)[C@H](NC(=O)[C@@H](NC(=O)[C@H](Cc1c[nH]c2ccccc12)NC(=O)[C@H](CCSC)NC(C)=O)[C@@H](C)O)C(=O)N[C@H]1CSSC[C@@H](C(=O)N[C@@H](Cc2c[nH]c3ccccc23)C(=O)N2CCC[C@H]2C(N)=O)NC(=O)[C@H](CC(=O)O)NC(=O)[C@H](Cc2cnc[nH]2)NC(=O)[C@H](Cc2cn(C)c3ccccc23)NC(=O)[C@H](CC(N)=O)NC(=O)[C@H](CC(N)=O)NC1=O [compound 42, Ac-M-W-T-I-C(3)-N-N-(1Me-W)-H-D-C(3)-W-P-CONH2] (Ac-MWTICNN[Trp(1-Me)]HDCWP-NH2; disulfide 5-11)

Reference: patent publication US20250049970A1, “DLL3 TARGETING PEPTIDES AND CONSTRUCTS THEREOF” (MARIANA ONCOLOGY INC., priority 2023, published 2025)
